This is an account of results in patent publication EP2526945A1, “New CRTH2 Antagonists” (Almirall, S.A., priority 2011, dated 2012).

pIC50: −log10 of the molar value.

The assay has as its target T1, CRTh2 receptor (Homo sapiens, UniProt Q9Y5Y4).
T1 construct: expressed in transfected cells; host or cells: CHO.K1 cells (membranes)
T1 sequence (Q9Y5Y4 1-395): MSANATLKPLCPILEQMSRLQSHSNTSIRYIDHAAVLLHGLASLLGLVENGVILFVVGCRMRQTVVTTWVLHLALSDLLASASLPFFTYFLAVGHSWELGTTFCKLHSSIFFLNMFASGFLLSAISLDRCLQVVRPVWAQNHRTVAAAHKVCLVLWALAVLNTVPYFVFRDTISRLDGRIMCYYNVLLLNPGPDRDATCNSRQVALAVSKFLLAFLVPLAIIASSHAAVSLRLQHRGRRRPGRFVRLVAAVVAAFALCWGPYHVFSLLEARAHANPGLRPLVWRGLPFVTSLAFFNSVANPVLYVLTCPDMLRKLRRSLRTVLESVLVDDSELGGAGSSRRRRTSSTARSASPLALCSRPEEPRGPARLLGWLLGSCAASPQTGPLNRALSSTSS
Put plainly: CRTh2 GTPγS antagonism binding assay. It is filed as biochemical. Conditions: membranes from CHO.K1 cells stably overexpressing the CRTh2 receptor; PGD2 at 50 nM (EC80); [35S]-GTPγS as radioligand; read-out: GTPγ Binding. Here is the method:
CRTh2 GTPγS antagonism binding assay
The assay is performed using membranes obtained from CHO.K1 cells stably overexpressing the CRTh2 receptor and [^35S]-GTPγS as radioligand. Assay is performed pre-incubating 4-8 µg of membranes per well with the compound to be tested for 1 h, followed by incubation with PGD2 at 50 nM (EC80), 0.1 nM [^35S]-GTPγS in incubation buffer (20 mM HEPES, 10 mM MgCl2, 100 mM NaCl, 10 µM GDP, 10 µg/ml Saponine and 0.2% BSA) for 2 h at room temperature. The reaction is terminated by filtering in GF/C plates pre-treated with 20 mM HEPES, 10 mM MgCl2, 100 mM NaCl and washing 6 times with wash buffer (20 mM NaH2PO4, 20 mM Na2HPO4). After washing, plates are dried and scintillation buffer Optiphase added. The radioactivity retained in the filter is counted using a Microbeta liquid scintillation counter.
In general terms: Binding of GTPγS marks nucleotide exchange on a G protein.
Regarding `Cc1c(Cc2ccc(S(=O)(=O)Cc3ccccc3)cc2)c2c(n1CC(=O)O)CCNC2=O` [Example 39, {3-[4-(Benzylsulfonyl)benzyl]-2-methyl-4-oxo-4,5,6,7-tetrahydro-1H-pyrrolo[3,2-c]pyridin-1-yl}acetic acid], the pIC50 was 8.54.

Take `Cc1c(Cc2cccn2S(=O)(=O)c2ccccc2)c2c(n1CC(=O)O)CCNC2=O` [Example 44, (2-Methyl-4-oxo-3-{[1-(phenylsulfonyl)-1H-pyrrol-2-yl]methyl}-4,5,6,7-tetrahydro-1 H-pyrrolo[3,2-c]pyridin-1-yl)acetic acid]: the pIC50 is 8.23. Regarding `Cc1c(Cc2ccccc2S(=O)(=O)c2cccc(F)c2)c2c(n1CC(=O)O)CCNC2=O` [Example 12, (3-{2-[(3-Fluorophenyl)sulfonyl]benzyl}-2-methyl-4-oxo-4,5,6,7-tetrahydro-1H-pyrrolo[3,2-c]pyridin-1-yl)acetic acid], the pIC50 was 8.21. For the compound `COc1ccc(S(=O)(=O)c2ccccc2)c(Cc2c3c(n(CC(=O)O)c2C)CCNC3=O)c1` [Example 6, {3-[5-Methoxy-2-(phenylsulfonyl)benzyl]-2-methyl-4-oxo-4,5,6,7-tetrahydro-1H-pyrrolo[3,2-c]pyridin-1-yl}acetic acid], the pIC50 is 8.44. Consider `Cc1c(Cc2ccccc2S(=O)(=O)c2cccc(Cl)c2)c2c(n1CC(=O)O)CCNC2=O` [Example 8, (3-{2-[(3-Chlorophenyl)sulfonyl]benzyl}-2-methyl-4-oxo-4,5,6,7-tetrahydro-1H-pyrrolo[3,2-c]pyridin-1-yl)acetic acid], for which the pIC50 was 8.40. Take `Cc1c(Cc2ccccc2S(=O)(=O)c2ccccc2F)c2c(n1CC(=O)O)CCNC2=O` [Example 17, (3-{2-[(2-Fluorophenyl)sulfonyl]benzyl}-2-methyl-4-oxo-4,5,6,7-tetrahydro-1H-pyrrolo[3,2-c]pyridin-1-yl)acetic acid]: the pIC50 is 8.44.

As for `Cc1c(Cc2ccc(C(=O)O)cc2S(=O)(=O)c2ccccc2)c2c(n1CC(=O)O)CCNC2=O` [Example 29, 4-{[1-(Carboxymethyl)-2-methyl-4-oxo-4,5,6,7-tetrahydro-1H-pyrrolo[3,2-c]pyridin-3-yl]methyl}-3-(phenylsulfonyl)benzoic acid], the pIC50 is 7.74. As for `Cc1c(Cc2ccccc2S(=O)(=O)c2ccc(F)cc2)c2c(n1CC(=O)O)CCNC2=O` [Example 4, (3-{2-[(4-Fluorophenyl)sulfonyl]benzyl}-2-methyl-4-oxo-4,5,6,7-tetrahydro-1H-pyrrolo[3,2-c]pyridin-1-yl)acetic acid], the pIC50 is 8.49. Turning to `Cc1c(Cc2ccccc2S(=O)(=O)c2ccccc2)c2c(n1[C@H](C)C(=O)O)CCNC2=O` [Example 20, (2R)-2-{2-Methyl-4-oxo-3-[2-(phenylsulfonyl)benzyl]-4,5,6,7-tetrahydro-1H-pyrrolo [3,2-c]pyridin-1-yl}propanoic acid], the pIC50 was 8.04. Take `Cc1c(Cc2ccc(C(F)(F)F)cc2S(=O)(=O)c2ccccc2)c2c(n1CC(=O)O)CCNC2=O` [Example 10, {2-Methyl-4-oxo-3-[2-(phenylsulfonyl)-4-(trifluoromethyl)benzyl]-4,5,6,7-tetrahydro-1H-pyrrolo[3,2-c]pyridin-1-yl}acetic acid]: the pIC50 is 7.89. In the case of `COc1ccc(S(=O)(=O)c2ccc(F)cc2)c(Cc2c3c(n(CC(=O)O)c2C)CC(C)(C)NC3=O)c1` [Example 62, (3-{2-[(4-Fluorophenyl)sulfonyl]-5-methoxybenzyl}-2,6,6-trimethyl-4-oxo-4,5,6,7-tetrahydro-1H-pyrrolo[3,2-c]pyridin-1-yl)acetic acid], the pIC50 was 8.32. `Cc1c(Cc2ccccc2S(=O)(=O)c2ccccc2)c2c(n1CC(=O)O)CCN(C)C2=O` [Example 27, {2,5-Dimethyl-4-oxo-3-[2-(phenylsulfonyl)benzyl]-4,5,6,7-tetrahydro-1H-pyrrolo[3,2-c]pyridin-1-yl}acetic acid]: the pIC50 was 8.27. Consider `Cc1c(Cc2ccccc2S(=O)(=O)c2ccccc2)c2c(n1CC(=O)O)CCN(Cc1ccccc1)C2=O` [Example 36, {5-Benzyl-2-methyl-4-oxo-3-[2-(phenylsulfonyl)benzyl]-4,5,6,7-tetrahydro-1H-pyrrolo[3,2-c]pyridin-1-yl}acetic acid], for which the pIC50 was 8.82. Next, `CNC(=O)c1ccc(Cc2c3c(n(CC(=O)O)c2C)CCNC3=O)c(S(=O)(=O)c2ccccc2)c1` [Example 31, {2-Methyl-3-[4-[(methylamino)carbonyl]-2-(phenylsulfonyl)benzyl]-4-oxo-4,5,6,7-tetrahydro-1H-pyrrolo[3,2-c]pyridin-1-yl}acetic acid]: 8.02. Consider `Cc1c(Cc2ccccc2S(=O)(=O)c2ccc(F)cc2)c2c(n1CC(=O)O)CC(C)(C)NC2=O` [Example 60, (3-{2-[(4-Fluorophenyl)sulfonyl]benzyl}-2,6,6-trimethyl-4-oxo-4,5,6,7-tetrahydro-1 H-pyrrolo[3,2-c]pyridin-1-yl)acetic acid], for which the pIC50 was 8.30. With `Cc1c(Cc2ccccc2S(=O)(=O)c2ccc(OC(F)(F)F)cc2)c2c(n1CC(=O)O)CCNC2=O` [Example 16, [2-Methyl-4-oxo-3-(2-{[4-(trifluoromethoxy)phenyl]sulfonyl}benzyl)-4,5,6,7-tetrahydro-1H-pyrrolo[3,2-c]pyridin-1-yl]acetic acid], the pIC50 was 8.16. On to `COc1cccc(Cc2c3c(n(CC(=O)O)c2C)CCNC3=O)c1S(=O)(=O)c1ccccc1` [Example 21, {3-[3-Methoxy-2-(phenylsulfonyl)benzyl]-2-methyl-4-oxo-4,5,6,7-tetrahydro-1H-pyrrolo[3,2-c]pyridin-1-yl}acetic acid], for which the pIC50 is 7.70. Regarding `Cc1c(Cc2cc(F)ccc2S(=O)(=O)c2ccccc2)c2c(n1CC(=O)O)CCNC2=O` [Example 37, {3-[5-Fluoro-2-(phenylsulfonyl)benzyl]-2-methyl-4-oxo-4,5,6,7-tetrahydro-1H-pyrrolo[3,2-c]pyridin-1-yl}acetic acid], the pIC50 is 8.43. As to `Cc1c(Cc2ccccc2S(=O)(=O)c2ccccc2)c2c(n1CC(=O)O)CCN(C(C)C(F)(F)F)C2=O` (stereo not drawn) [Example 71, [2-Methyl-4-oxo-3-[2-(phenylsulfonyl)benzyl]-5-(2,2,2-trifluoro-1-methylethyl)-4,5,6,7-tetrahydro-1H-pyrrolo[3,2-c]pyridin-1-yl]acetic acid], the pIC50 is 8.24. As to `Cc1c(Cc2ccccc2S(=O)(=O)c2ccccc2)c2c(n1CC(=O)O)CC(C)(C)NC2=O` [Example 58, {2,6,6-Trimethyl-4-oxo-3-[2-(phenylsulfonyl)benzyl]-4,5,6,7-tetrahydro-1H-pyrrolo[3,2-c]pyridin-1-yl}acetic acid], the pIC50 was 8.35. As for `Cc1c(Cc2ccccc2S(=O)(=O)c2ccccc2)c2c(=O)[nH]ccc2n1CC(=O)O` [Example 72, {2-Methyl-4-oxo-3-[2-(phenylsulfonyl)benzyl]-4,5-dihydro-1H-pyrrolo[3,2-c]pyridin-1-yl}acetic acid], the figure is 8.07; as for `Cc1c(Cc2ccccc2S(=O)(=O)c2ccccc2)c2c(=O)n(C)ccc2n1CC(=O)O` [Example 75, {2,5-Dimethyl-4-oxo-3-[2-(phenylsulfonyl)benzyl]-4,5-dihydro-1H-pyrrolo[3,2-c]pyridin-1-yl}acetic acid], 8.31. Turning to `COC(=O)c1ccc(Cc2c3c(n(CC(=O)O)c2C)CCNC3=O)c(S(=O)(=O)c2ccccc2)c1` [Example 28, {3-[4-(Methoxycarbonyl)-2-(phenylsulfonyl)benzyl]-2-methyl-4-oxo-4,5,6,7-tetrahydro-1H-pyrrolo[3,2-c]pyridin-1-yl}acetic acid], the pIC50 was 7.96. Consider `Cc1c(Cc2ccccc2S(=O)(=O)N2CCOCC2)c2c(n1CC(=O)O)CCNC2=O` [Example 24, {2-Methyl-3-[2-(morpholin-4-ylsulfonyl)benzyl]-4-oxo-4,5,6,7-tetrahydro-1H-pyrrolo[3,2-c]pyridin-1-yl}acetic acid], for which the pIC50 is 7.70. Next, `COc1cccc(S(=O)(=O)c2ccccc2Cc2c3c(n(CC(=O)O)c2C)CCNC3=O)c1` [Example 34, (3-{2-[(3-Methoxyphenyl)sulfonyl]benzyl}-2-methyl-4-oxo-4,5,6,7-tetrahydro-1H-pyrrolo[3,2-c]pyridin-1-yl)acetic acid]: 7.92; `Cc1c(Cc2ccccc2S(=O)(=O)c2ccccc2)c2c(n1CC(=O)O)CCNC2=O` [Example 2, {2-Methyl-4-oxo-3-[2-(phenylsulfonyl)benzyl]-4,5,6,7-tetrahydro-1H-pyrrolo[3,2-c]pyridin-1-yl}acetic acid]: 8.34; `Cc1c(Cc2ccccc2S(=O)(=O)c2ccc(Cl)cc2)c2c(n1CC(=O)O)CCNC2=O` [Example 14, (3-{2-[(4-Chlorophenyl)sulfonyl]benzyl}-2-methyl-4-oxo-4,5,6,7-tetrahydro-1H-pyrrolo[3,2-c]pyridin-1-yl)acetic acid]: 8.08.
